Laboratory results from patent US6869948B1 (Boehringer Ingelheim Pharma KG, priority 1998, dated 2005).
Read-outs that look alike come from different tables or passages of the source.

What was measured:
[1] = cited from earlier work
[2] = assay type: physicochemical
Experimental: Under ambient conditions the monohydrate of the meloxicam-meglumin salt is the stable modification, but at a relative humidity of over 75% a dihydrate is formed. The enclosed water can only be eliminated from the dihydrate under conditions of very great dryness. […] By intensive drying over a fairly long period the anhydrous form changes more and more into an amorphous form and after 24 h at 100° C. the material is totally amorphous.
The relevant parameters of the dehydration process are the temperature and duration of dehydration, the influence of which were observed by X-ray powder diffraction. The longer the dehydration process lasts, the less crystalline is the resulting material. […] The X-ray powder diffraction diagrams obtained after 1 hour at 80° C., 15 hours at 70° C., 20 hours at 80° C. and 24 hours at 100° C. are shown in FIG. 7.

[3] = Saturation solubility of meloxicam and its salts in various dissolving media; assay type: physicochemical; conditions: 0.1 N hydrochloric acid, pH 1, simulated gastric fluid, read-out: Solubility at ambient temperature
[4] = depending on the formulation; cited from earlier work

## ibuprofen-lysinate
[1]; 8 fasting test subjects, ibuprofen-lysinate 1000 mg film-coated tablet, ibuprofenic acid 600 mg sugar-coated tablet
  time after administration to peak-plasma level: 0.55 h
[1]; non-fasting test subjects
  time after administration to peak-plasma level: 1.18 h

## CNC[C@H](O)[C@@H](O)[C@H](O)[C@H](O)CO.Cc1cnc(NC(=O)C2=C(O)c3ccccc3S(=O)(=O)N2C)s1.O [Example 1, Meloxicam Meglumin Salt Monohydrate]
[2]
  hygroscopic properties: hygroscopic
[2]; 24 hours at 100° C.
  solid-state change on dehydration (X-ray powder diffraction): anhydrous and totally amorphous
[2]; one hour at 80° C.
  solid-state change on dehydration (X-ray powder diffraction): no change can be detected

## Cc1cnc(NC(=O)C2=C(O)c3ccccc3S(=O)(=O)N2C)s1 [Meloxicam, 4-hydroxy-2-methyl-N-(5-methyl-2-thiazolyl)-2H-1,2-benzothiazine-3-carboxamide-1,1-dioxide]
[3]
  solubility thermodynamic: 0.9 µg/mL
[4]
  time to maximum plasma levels: 2 to 8 h

## CNC[C@H](O)[C@@H](O)[C@H](O)[C@H](O)CO.Cc1cnc(NC(=O)C2=C(O)c3ccccc3S(=O)(=O)N2C)s1 [Example 3, Anhydrous Meloxicam Meglumin Salt]
[2]
  stability of the anhydrous form after dehydration: very rapidly absorbs water to form the monohydrate form
